Test results: PMC7407272, “Induction of Lysosome Membrane Permeabilization as a Therapeutic Strategy to Target Pancreatic Cancer Stem Cells” (Cancers, 2020)
Like-named read-outs stand apart in the source and are kept apart here.

Assays:
[1] = mESC viability (MTS) screen and dose response; type: cell-based, mouse; conditions: mouse, mouse embryonic stem cells (mESCs), 5 µM, MTS
Description: (§1) Mouse embryonic stem cells were cultured in Dulbecco’s Modified Eagle Medium (DMEM) containing 15% Fetal bovine serum (FBS), non-essential amino acids (NEAA), 2-mercaptoethanol, and Leukemia inhibitory factor (LIF) and passaged on gelatinized plates under standard conditions.
(§2) Murine embryonic stem cells (mESCs) were plated at 20,000 cells per well in gelatinized 96 well plates. Compounds from the 640 compound ETP library were added by a Beckman FX 96 tip to achieve a final concentration of 5 µM in each well, and each compound was tested in duplicate. Cells were treated for a total of 30 h prior to assessing cell viability using CellTiter 96® AQueous One Solution Cell Proliferation Assay (MTS) assay according to manufacturer’s instructions (G3582, Promega, Madison, WI, USA). Dose response curves were carried out on mESCs under the same conditions using indicated compounds. To test the viability of CSCs, 10,000 PDAC cells were plated in spheroid conditions and immediately treated with indicated compounds and concentrations for the duration of the sphere formation assay. For adherent non-CSCs, 20,000 cells were plated in wells of standard tissue culture-treated plates (Corning, Corning, NY, USA) and treated the following day with indicated compounds and concentrations. For re-plated spheres (Figure S1B), 7-day-old spheres were filtered using a 40 µM filter (Fisher Scientific, Hampton, NH, USA), washed once with 1× PBS, and incubated with trypsin 0.05% EDTA at 37 °C (Thermo Fisher Scientific, Waltham, MA, USA) to achieve a single cell suspension (approximately 10–30 min, depending on the PDAC culture). Trypsinized cells were counted and 20,000 cells were plated in wells of standard tissue culture-treated plates (Corning) and treated the following day with indicated compounds and concentrations.

[2] = tested on: mouse embryonic stem cells (mESCs); assay: mESC viability (MTS) screen and dose response; type: cell-based; conditions: Mus musculus, Embryonic stem cell, 30 h
Description: as §1, §2

PDAC2 3D spheres = assay: Viability curves on PDAC2 3D spheres; type: cell-based, human; conditions: for EC50: Homo sapiens
Source text: The PDAC patient-derived xenograft (PDX) Panc354 (referred to hereafter as PDAC3) was obtained from Dr. Manuel Hidalgo under a Material Transfer Agreement with the Spanish National Cancer Centre (CNIO), Madrid, Spain (Reference no. I409181220BSMH). PDAC1, PDAC2 and PDAC4 PDXs were established from primary patient resected tumors. Samples were provided by the BioBank Hospital Ramón y Cajal-IRYCIS (PT13/0010/0002), integrated in the Spanish National Biobanks Network and they were processed following standard operating procedures with the appropriate approval of the Ethical and Scientific Committees (Control no. No. Control: DE-BIOB-73 AC65, RG.BIOB-96 REV, and CI-BIOB-08-10-01 rev), with informed consent and according to Declaration of Helsinki principles. Primary patient tumors were subcutaneously implanted in immunocompromised female 6- to 8-week-old NU-Foxn1nu nude mice (Envigo, Barcelona, Spain) and subsequently passage in vivo to establish PDX PDAC1, PDAC2 and PDAC4. Primary PDX-derived in vitro cultures were established as previously detailed. Briefly, xenografts were minced, enzymatically digested with collagenase (Stem Cell Technologies) for 60 min at 37 °C and after centrifugation for 5 min at 1800 rpm, the cell pellets were resuspended and cultured in RPMI (1:1; #61870-010; Gibco, Waltham, MA, USA) supplemented with 10% FBS (Invitrogen, Waltham, MA, USA), Pen/Strep (1:100; #1500-063; Gibco, Waltham, MA, USA), and Fungizone (1:250; #15290-018; Gibco, Waltham, MA, USA). Primary cultures were tested for Mycoplasma at least every 4 weeks.
Pancreatic CSC spheres were generated as previously described in ultra-low attachment plates (Corning) using CSC media: serum-free DMEM/F12 medium (1:1; #21331-020; Gibco, Waltham, MA, USA), supplemented with Pen/Strep (1:100; #1500-063; Gibco, Waltham, MA, USA), Fungizone (1:250; #15290-018; Gibco), L-Glutamine (1:100; #25030-024; Gibco, Waltham, MA, USA), B-27 (1:50; #17504-044; Gibco, Waltham, MA, USA) and basic fibroblast growth factor (FGF-b) (1:5000; Gibco, Waltham, MA, USA). All cell culture was carried out at 37 °C in a 5% CO2 humidified incubator. To quantify spheres of > 40 μm, 1 mL of sample volume was analyzed with a CASY® Cell Counter (Roche Applied Sciences, Mannheim, Germany). The CASY® Cell Counter measuring principle is based on a capillary particle counter with pulse area analysis, that permits the determination of cell count, cell concentration, cell volume (peak), and average cell diameter, specifically diameters of 40–80 μm, 80–120 μm and >120 μm.
Murine embryonic stem cells (mESCs) were plated at 20,000 cells per well in gelatinized 96 well plates. Compounds from the 640 compound ETP library were added by a Beckman FX 96 tip to achieve a final concentration of 5 µM in each well, and each compound was tested in duplicate. Cells were treated for a total of 30 h prior to assessing cell viability using CellTiter 96® AQueous One Solution Cell Proliferation Assay (MTS) assay according to manufacturer’s instructions (G3582, Promega, Madison, WI, USA). Dose response curves were carried out on mESCs under the same conditions using indicated compounds. To test the viability of CSCs, 10,000 PDAC cells were plated in spheroid conditions and immediately treated with indicated compounds and concentrations for the duration of the sphere formation assay. […]

GCN2(KD2,S808G) = biological target: T1, GCN2(KD2,S808G) (Homo sapiens, UniProt Q9P2K8, S808G); assay: KINOMEscan; type: binding; conditions: read-out: % Ctrl
T1 construct: purchased DiscoveRx KINOMEscan

RSK2(KD1-N-t.) = biological target: T2, RSK2(KD1-N-t.) (Homo sapiens, UniProt P51812); assay: KINOMEscan; type: binding; conditions: read-out: % Ctrl
T2 construct: RSK2(KD1-N-t.); purchased DiscoveRx KINOMEscan

CLK3 = biological target: T3, CLK3 (Homo sapiens, UniProt P49761); assay: KINOMEscan; type: binding; conditions: read-out: % Ctrl
T3 construct: purchased DiscoveRx KINOMEscan

SYK = biological target: T4, SYK (Homo sapiens, UniProt P43405); assay: KINOMEscan; type: binding; conditions: read-out: % Ctrl
T4 construct: purchased DiscoveRx KINOMEscan

NIM1 = biological target: T5, NIM1 (Homo sapiens, UniProt Q8IY84); assay: KINOMEscan; type: binding; conditions: read-out: % Ctrl
T5 construct: purchased DiscoveRx KINOMEscan
T5 sequence (Q8IY84 whole entry): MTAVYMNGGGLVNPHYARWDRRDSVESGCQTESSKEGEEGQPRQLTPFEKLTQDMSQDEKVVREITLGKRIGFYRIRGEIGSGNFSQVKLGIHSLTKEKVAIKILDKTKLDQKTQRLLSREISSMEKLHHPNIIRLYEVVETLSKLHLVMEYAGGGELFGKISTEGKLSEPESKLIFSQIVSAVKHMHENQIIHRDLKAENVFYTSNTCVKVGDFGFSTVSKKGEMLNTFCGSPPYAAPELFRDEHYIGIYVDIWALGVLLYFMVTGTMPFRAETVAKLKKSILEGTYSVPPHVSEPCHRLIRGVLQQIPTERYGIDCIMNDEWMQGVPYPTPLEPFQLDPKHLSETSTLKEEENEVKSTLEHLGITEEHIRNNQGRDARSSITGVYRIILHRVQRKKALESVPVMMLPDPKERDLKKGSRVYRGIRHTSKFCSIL

T1 sequence (Q9P2K8 590-1001 S808G limits assumed): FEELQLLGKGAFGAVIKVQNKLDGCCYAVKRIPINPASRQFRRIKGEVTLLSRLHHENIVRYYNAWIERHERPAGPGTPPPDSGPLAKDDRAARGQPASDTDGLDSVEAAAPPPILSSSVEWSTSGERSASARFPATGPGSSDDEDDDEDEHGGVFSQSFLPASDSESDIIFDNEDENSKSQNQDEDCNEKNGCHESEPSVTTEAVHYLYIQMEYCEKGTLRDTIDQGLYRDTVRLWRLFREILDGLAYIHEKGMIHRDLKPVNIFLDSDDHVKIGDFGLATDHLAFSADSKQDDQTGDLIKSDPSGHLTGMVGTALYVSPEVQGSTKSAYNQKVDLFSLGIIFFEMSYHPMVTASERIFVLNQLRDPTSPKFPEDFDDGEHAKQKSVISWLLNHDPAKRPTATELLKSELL
T3 sequence (P49761 whole entry): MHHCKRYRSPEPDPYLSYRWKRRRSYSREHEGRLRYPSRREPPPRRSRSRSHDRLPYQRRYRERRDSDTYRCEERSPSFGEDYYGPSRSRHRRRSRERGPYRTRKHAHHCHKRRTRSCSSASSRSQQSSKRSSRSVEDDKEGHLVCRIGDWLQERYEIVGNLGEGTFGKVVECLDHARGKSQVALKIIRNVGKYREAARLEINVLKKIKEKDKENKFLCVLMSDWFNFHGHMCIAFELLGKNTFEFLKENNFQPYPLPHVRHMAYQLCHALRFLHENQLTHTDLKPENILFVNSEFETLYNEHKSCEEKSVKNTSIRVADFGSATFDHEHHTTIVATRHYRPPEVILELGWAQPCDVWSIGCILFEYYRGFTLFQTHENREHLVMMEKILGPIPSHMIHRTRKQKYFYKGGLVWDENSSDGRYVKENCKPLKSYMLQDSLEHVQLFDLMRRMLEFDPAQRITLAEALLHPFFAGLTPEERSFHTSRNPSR
T2 sequence (P51812 1-397 limits assumed): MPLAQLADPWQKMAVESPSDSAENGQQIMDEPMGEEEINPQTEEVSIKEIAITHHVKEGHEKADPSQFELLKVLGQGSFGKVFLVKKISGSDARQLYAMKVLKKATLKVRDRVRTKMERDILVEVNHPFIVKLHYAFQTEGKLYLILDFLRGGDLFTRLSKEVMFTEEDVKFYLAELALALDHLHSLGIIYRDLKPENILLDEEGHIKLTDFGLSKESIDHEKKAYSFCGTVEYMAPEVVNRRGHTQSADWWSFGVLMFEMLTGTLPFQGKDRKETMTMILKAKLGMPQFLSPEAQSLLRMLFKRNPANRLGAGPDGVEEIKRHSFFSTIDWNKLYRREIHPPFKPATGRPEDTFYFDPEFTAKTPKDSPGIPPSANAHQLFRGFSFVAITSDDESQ

Row | Structure (SMILES) | viability at 30 h, 5 µM [1] [%] | EC50 [2] [µM] | prevention of the effect on PDAC2 CSC survival by Bafilomycin-A (PDAC2 3D spheres; 100 nM Bafilomycin 5 h pretreatment) | EC50 (PDAC2 3D spheres; PDAC-2, 72 h, no Bafilomycin, read-out: EC50 (viability), PDAC2 spheres) [µM] | EC50 (PDAC2 3D spheres; PDAC-2, pretreated with 100 nM Bafilomycin for 5 h, then 72 h, read-out: EC50 (viability), PDAC2 spheres, +Baf) [µM] | remaining binding at 1 µM (GCN2(KD2,S808G)) [%] | remaining binding at 1 µM (RSK2(KD1-N-t.)) [%] | remaining binding at 1 µM (CLK3) [%] | remaining binding at 1 µM (SYK) [%] | remaining binding at 1 µM (NIM1) [%] | EC50 (PDAC2 3D spheres; PDAC-2, 30 h, read-out: EC50 (viability), PDAC2 spheres) [µM]
1 | COc1nc2ccc(NCC3CCN(C)CC3)nn2c1C(=O)Nc1cccc(OC(F)(F)F)c1 [Cpd 1] | 8 | 1.33 | – | – | – | – | – | – | – | – | –
2 | CN1CCC(CNc2ccc3ncc(C(=O)Nc4cccc(OC(F)(F)F)c4)n3n2)CC1 [Cpd 2] | 19 | 2.05 | ≈ 3 fold | 3.84 | 9.14 | 73 | 89 | 93 | 94 | 78 | –
3 | Fc1ccc(-n2cc(CCCCN3CCC4(CC3)OCc3ccccc34)c3ccccc32)cc1 [siramesine] | – | – | – | – | – | – | – | – | – | – | 5.98
